Measured values: patent EP2103618A1, “Novel ansamitocin derivatives” (Leibniz Universität Hannover, priority 2008, dated 2009)
In brackets after ≈: the same amount, converted by molar mass.

What was measured:
Format in all cases: cell-based
A-431 = test: Growth inhibition of cultured human tumor cell lines in microtiter plates, MTT assay; conditions: A-431, Epidermoid carcinoma, 5 days; for IC50: Homo sapiens, 120 h, read-out: Antiproliferative activity IC50
Experimental: (§1) For the detailed evaluation of their biological profile as anti-cancer agents, cultured human tumor cell lines were treated with the new ansamitocin derivatives. In particular, the 19-fluoro-20-demethoxyansamitocin P3 (F-A), 19-chloro-20-demethoxyansamitocin P3 (Cl-A), 19-bromo-20-demethoxyansamitocin P3 (Br-A), and the 20-demethoxy-19-vinylansamitocin P3 (VI) were tested for their inhibitory effect on cell growth of different cell lines, namely KB-3-1, U-937, PC-3, SK-OV-3, A-498, A-431, and A-549, in comparison to natural biosynthesis product Ansamitocin P-3 (AP-3). Growth inhibition was measured in microtiter plates. 60 µl of serial dilutions of the test compounds were added to aliquots of 120 µl of the suspended cells (50000/ml). After 5 days the growth was determined using a MTT assay, except for U-937, where the WST-1 assay from Roche was employed.

A-549 = test: as above; conditions: A-549, Lung carcinoma, 5 days; for IC50: Homo sapiens, A549, 120 h, read-out: Antiproliferative activity IC50
Experimental: as §1

PC-3 = test: as above; conditions: PC-3, Prostate carcinoma, 5 days; for IC50: Homo sapiens, 120 h, read-out: Antiproliferative activity IC50
Experimental: as §1

KB-3-1 = test: as above; conditions: KB-3-1, Cervix carcinoma, 5 days; for IC50: Homo sapiens, 120 h, read-out: Antiproliferative activity IC50
Experimental: as §1

A-498 = test: as above; conditions: A-498, Kidney carcinoma, 5 days; for IC50: Homo sapiens, A498, 120 h, read-out: Antiproliferative activity IC50
Experimental: as §1

SK-OV-3 = test: as above; conditions: SK-OV-3, Ovarian carcinoma, 5 days; for IC50: Homo sapiens, 120 h, read-out: Antiproliferative activity IC50
Experimental: as §1

U-937 = test: Growth inhibition of cultured human tumor cell lines in microtiter plates, WST-1 assay; conditions: U-937, Lymphoma, 5 days; for IC50: Homo sapiens, 120 h, read-out: Antiproliferative activity IC50
Experimental: as §1

[1] = tested on: cultured human tumor cell lines; test: Growth inhibition, statements across the whole panel of cell lines; conditions: for activity among the compounds tested: in general, across the cell lines, result in words
Experimental: as §1

Molecule | activity among the compounds tested [1] | IC50 (A-431) | IC50 (A-549) | IC50 (PC-3) | IC50 (KB-3-1) | IC50 (A-498) | IC50 (SK-OV-3) | IC50 (U-937) | also measured
CO[C@@H]1/C=C/C=C(\C)Cc2ccc(Br)c(c2)N(C)C(=O)C[C@H](OC(=O)C(C)C)[C@]2(C)O[C@H]2[C@H](C)[C@@H]2C[C@@]1(O)NC(=O)O2 [Br-A, 19-bromo-20-demethoxyansamitocin P3] |  |  |  |  |  |  |  |  | Antiproliferative activity IC50 (A-431): 0.1 ng/mL; Antiproliferative activity IC50 (A-549): 0.3 ng/mL; Antiproliferative activity IC50 (PC-3): 0.1 ng/mL; Antiproliferative activity IC50 (KB-3-1): 0.3 ng/mL; Antiproliferative activity IC50 (A-498): 4 ng/mL; Antiproliferative activity IC50 (SK-OV-3): 0.05 ng/mL; Antiproliferative activity IC50 (U-937): 0.03 ng/mL
20-demethoxy-19-vinylansamitocin P3 | most active |  |  |  |  |  |  |  | 
CO[C@@H]1/C=C/C=C(\C)Cc2ccc(Cl)c(c2)N(C)C(=O)C[C@H](OC(=O)C(C)C)[C@]2(C)O[C@H]2[C@H](C)[C@@H]2C[C@@]1(O)NC(=O)O2 [Cl-A, 19-chloro-20-demethoxyansamitocin P3] |  | 0.15 ng/mL (≈ 0.248 nM) | 0.4 ng/mL (≈ 0.661 nM) | 0.12 ng/mL (≈ 0.198 nM) | 0.35 ng/mL (≈ 0.578 nM) | 3 ng/mL (≈ 4.96 nM) | 0.1 ng/mL (≈ 0.165 nM) | 0.035 ng/mL (≈ 0.0578 nM) | activities weaker than that of the natural AP-3 [1]: 3-50 times
19-fluoro-20-demethoxyansamitocin P3 [F-A] | most active |  |  |  |  |  |  |  | 
CO[C@@H]1/C=C/C=C(\C)Cc2ccc(F)c(c2)N(C)C(=O)C[C@H](OC(=O)C(C)C)[C@]2(C)O[C@H]2[C@H](C)[C@@H]2C[C@@]1(O)NC(=O)O2 [F-A, 19-fluoro-20-demethoxyansamitocin P3] |  | 0.04 ng/mL (≈ 0.0679 nM) | 0.11 ng/mL (≈ 0.187 nM) | 0.035 ng/mL (≈ 0.0595 nM) | 0.18 ng/mL (≈ 0.306 nM) | 2 ng/mL (≈ 3.4 nM) | 0.035 ng/mL (≈ 0.0595 nM) | 0.01 ng/mL (≈ 0.017 nM) | 
COc1cc2cc(c1Cl)N(C)C(=O)C[C@H](OC(=O)C(C)C)[C@]1(C)O[C@H]1[C@H](C)[C@@H]1C[C@@](O)(NC(=O)O1)[C@H](OC)/C=C/C=C(\C)C2 [AP-3, Ansamitocin P-3, reference compound] |  | 0.05 ng/mL (≈ 0.0787 nM) | 0.1 ng/mL (≈ 0.157 nM) | 0.035 ng/mL (≈ 0.0551 nM) | 0.11 ng/mL (≈ 0.173 nM) | 1.1 ng/mL (≈ 1.73 nM) | 0.03 ng/mL (≈ 0.0472 nM) | 0.0035 ng/mL (≈ 0.00551 nM) | 
